According to US20220339138A1, “METHODS AND COMPOSITIONS FOR TREATMENT OF RETT SYNDROME” (ACADIA PHARMACEUTICALS INC., priority 2019, published 2022):
Entries after “also recorded” stand apart in the source; their conditions may differ. Read-outs that look alike come from different tables or passages of the source. Blank lines part the entries; values can stand above or below the compound they belong to. Square brackets hold non-standard residues; d marks the D form. Peptide text beside a SMILES is read from it. αMeP = C[C@@]1(C(=O)O)CCCN1

Assays:
[1] = system: patients with Rett syndrome; experiment: CGI-I exposure-response model; parameters: species or system human; conditions: refined population PK and E-R models
Method: Exposure-response analyses of the CGI-I scores were performed on data from patients with Rett syndrome with available trofinetide exposure estimates, plus placebo patients. All of the patients included in this analysis had at least 1 CGI-I score measured after trofinetide or placebo dosing. Data from 52 adult patients with Rett syndrome and 81 pediatric patients with Rett syndrome were pooled for this analysis.
The endpoints used for E-R efficacy modeling include CGI-I scores from two clinical studies and RSBQ scores from one clinical study. The CGI-I scores were measured on Days 5, 14, 17, and 26 and CGI-I scores were measured on Days 21, 28, 42, and 54. All patients received placebo for the first 14 days, so Day 14 was treated as the “true baseline” for trofinetide treatment. The RSBQ scores were collected on Days 14, 28, 42 and 54.
The overall procedures followed for the development of the E-R models for CGI-I and RSBQ scores were: 1) generation of individual estimates of exposure based on the population PK model; 2) exploratory data analysis; 3) base structural model development incorporating drug exposure effects; 4) evaluation of covariate effects, 5) final model refinement; and 6) model evaluation. Covariates evaluated in the analysis of efficacy endpoints were age, body weight, and BMI. […]

girls and women with RTT = experiment: Phase 2 clinical studies of trofinetide in Rett syndrome (efficacy, tolerability); assay type: in vivo, human
Method: Rett syndrome is a devastating disorder for which there is as yet no treatment beyond symptomatic care resulting in a great unmet medical need. […] Exposure-response analyses of RSBQ scores were performed on data from pediatric patients with Rett syndrome with available trofinetide exposure estimates, plus placebo patients. All of the patients included in this analysis had at least 1 RSBQ score measured after trofinetide or placebo dosing. The RSBQ E-R analysis dataset included only the 81 pediatric patients with Rett syndrome. The endpoints used for E-R efficacy modeling include CGI-I scores from two clinical studies and RSBQ scores from one clinical study. The CGI-I scores were measured on Days 5, 14, 17, and 26 and CGI-I scores were measured on Days 21, 28, 42, and 54. All patients received placebo for the first 14 days, so Day 14 was treated as the “true baseline” for trofinetide treatment. The RSBQ scores were collected on Days 14, 28, 42 and 54.

[2] = following oral administration; cited from earlier work
[3] = Population pharmacokinetic model from 9 clinical studies; assay type: in vivo, human; conditions: final population PK model, population mean
Source text: Data for the population PK model development of trofinetide came from 5 Phase 1 studies and 4 Phase 2 studies, including patients with Rett syndrome and other diseases. A total of 3058 trofinetide concentration records collected in 290 subjects were available for potential use in the analysis. A blend of full-profile and sparse data from 94 healthy volunteers, 93 patients with Rett syndrome (adult and pediatric), 103 patients with other diseases was available for this analysis.
Key steps for the development of the trofinetide population PK model were: 1) exploratory data analysis; 2) base structural model development via application, re-estimation, and refinement of a population PK model using pooled data from 9 clinical studies; 3) evaluation of covariate effects using forward selection; 4) full multivariable model evaluation: 5) backward elimination of covariates; 6) final model refinement; and 7) model evaluation. The continuous covariates evaluated included age, body weight, body mass index (BMI), estimated glomerular filtration rate, total bilirubin, alanine aminotransferase, and aspartate aminotransferase. The only categorical covariate evaluated was a combination of sex and disease state (SEXDS), where: SEXDS=0 for male healthy volunteers, SEXDS=1 for female healthy volunteers, SEXDS=2 for patients with Rett (female only), SEXDS=3 for patients with other disease A (male only), SEXDS=4 for male patients with other disease B, and SEXDS=5 for female patients with other disease B. The covariate analysis used a standard forward selection-backward elimination method to identify statistically significant (α=0.001) predictors of PK variability that also explained a sufficient proportion of interindividual variability (IIV) for the respective PK parameter upon which they were tested (that is, reducing IV by ≥5%). The final PK model was validated using a simulation-based, prediction-corrected visual predictive check (pcVPC) methodology to assess concordance between the model-based simulated data and the observed data.
A total of 2759 trofinetide plasma concentrations in 281 subjects were used in the development of the population PK model. The analysis dataset comprised subjects with a median (range) age of 22 (5 to 64) years and a median (range) body weight of 65.6 (15.1 to 139.6) kg, with 52.8% of the analysis population being male and 47.2% female.
The final population PK model for trofinetide was a 2-compartment model with first-order absorption, linear elimination, and 2 separate exponential error models for healthy volunteers and patients. The model included separate bioavailability terms for oral dosing (relative bioavailability [F1]) and dosing via gastric tube (F1G). Interindividual variability was estimated for first-order absorption (ka), clearance (CL), central volume of distribution (Vc), peripheral volume of distribution (Vp), and intercompartmental clearance (Q) using exponential error models.
A total of 4 covariate-parameter relationships were included in the final population PK model. […] Therefore, the final PK model included body weight as a significant predictor of both CL (as a power function) and Vc (as a power function), and SEXDS as a significant predictor of both CL (as a proportional function) and Vc (as a proportional function).

clinical = conditions: human, in vivo
Method: These pharmacokinetic results are in agreement with the data obtained previously in healthy subjects and in adolescent and adult RTT patients.
Therefore, the upper levels of exposure in the 200 mg/kg BID dose level were considered to be effective and thus an appropriate target exposure level. Thus, dosing strategies were developed with the aim of providing a minimal target exposure of 800 μg/mL·h, corresponding approximately to the 90-100% AUC quantile of exposure (AUC0-12) observed in the children/adolescents study for the nominal dose of 200 mg/kg BID. With weight-banding, a greater proportion of subjects is expected to achieve the target drug exposure.

[4] = cited from earlier work
MeCP2 mutant mice = MeCP2 mutant mice (Tropea et al. 2009); cited from earlier work
[5] = system: children with Rett syndrome 2 to 10 years of age; conditions: Phase 2 trial (O'Leary et al. 2018); cited from earlier work
[6] = 50 mg/kg BID, pediatric RTT patients
[7] = 100 mg/kg BID, pediatric RTT patients
[8] = 200 mg/kg BID, pediatric RTT patients

bioavailability ([3]; both sexes, human, plasma, other: gastric tube, read-out: F1G: Gastric Tube Bioavailability): 84.7%
bioavailability ([3]; both sexes, human, plasma, po, read-out: F1: Oral Bioavailability): 77%
clearance ([3]; both sexes, human, plasma, read-out: CL: Central Clearance (converted)): 192 mL/min
Q: Distribution Clearance [3]: 1.02 L/h
Vc: Central Volume [3]: 22.2 L
Vc: Exponent of (WTKG/65) for Vc [3]: 0.770
Vc: Proportional Shift in Vc for Rett = 1 [3]: −0.562
Vc: Proportional Shift in Vc for disease B = 1 [3]: −0.374
Vp: Peripheral Volume [3]: 53.0 L
ka: First-Order Absorption Rate Constant [3]: 0.195 h⁻¹
effect of body weight on clearance and central volume of distribution (clinical): significant effect
AUC(0-t) (clinical; 200 mg/kg): ≥ 790 µg·h/mL
Compound: C[C@@]1(C(=O)N[C@@H](CCC(=O)O)C(=O)O)CCCN1C(=O)CN [trofinetide, (2S)-2-[[(2S)-1-(2-aminoacetyl)-2-methylpyrrolidine-2-carbonyl]amino]pentanedioic acid] (H-Gly-[αMeP]-Glu-OH)
association of higher trofinetide exposure with improvement in Rett syndrome (CGI-I and RSBQ scores) compared to placebo [1]: greater improvement
clinical efficacy versus placebo (girls and women with RTT; 200 mg/kg BID, Phase 2): evidence of clinical efficacy; also recorded: benefit compared to placebo
median percent change in RSBQ scores from baseline (girls and women with RTT; 200 mg/kg twice daily (BID), over 54 days, pediatric patients with Rett syndrome): −14.4%
PK/PD relationship (exposure versus RSBQ, RTT-DSC, CGI-I) (girls and women with RTT; exploratory analyses, Phase 2): positive PK/PD relationship
tolerability (girls and women with RTT; two studies in girls and women with RTT): well tolerated
blood-brain barrier passage [2]: crosses the blood-brain barrier
median AUC(0-12ss) [4, 6]: 139.4 µg·h/mL
median Cmax [4, 6]: 17.7 µg/mL
median AUC(0-12ss) [4, 7]: 338.6 µg·h/mL
median Cmax [4, 7]: 52.6 µg/mL
median AUC(0-12ss) [4, 8]: 505.1 µg·h/mL
median Cmax [4, 8]: 82.2 µg/mL
accumulation, metabolic inhibition, or induction during treatment ([4]; Phase 2 studies): no accumulation, metabolic inhibition, or induction
pharmacokinetics across the dose range tested ([4]; pediatric RTT patients): linear pharmacokinetics

Compound: glycine-proline-glutamate [GPE]
effect on Rett-like symptoms (MeCP2 mutant mice): reversed Rett-like symptoms

Compound: mecasermin: recombinant human IGF-1, a compound related to trofinetide
CSBS-DP-IT, active treatment group compared to placebo [5]: evidence of benefit
